The source of these data is ChEMBL document CHEMBL6153046, “Semisynthesis of Glycosmis pentaphylla Alkaloid Derivatives: Pyranoacridone-Hydroxamic Acid Cytotoxic Conjugates with HDAC and Topoisomerase II α Dual Inhibitory Activity” (J Nat Prod, 2025).

Each structure is given as a SMILES string. Activity calls are given as the source filed them. No cut-off for these calls is given here.

The test system of data set [1] is MCF7. In words: Cytotoxicity against human MCF-7 cells assessed as cell viability incubated for 96 hrs by MTT assay. Format: functional, cell-based. As to conditions: MCF7, 96 h. Background: Tetrazolium dyes change colour on reduction, which living cells bring about.
The test system of data set [2] is Calu-3. In words: Cytotoxicity against human CALU-3 cells assessed as cell viability incubated for 96 hrs by MTT assay. Format: functional, cell-based. As to conditions: Calu-3, 96 h.
Data set [3] concerns SCC-25. The data set can be described thus: Cytotoxicity against human SCC-25 cells assessed as cell viability incubated for 96 hrs by MTT assay. Format: functional, cell-based. As to conditions: SCC-25, 96 h.
The nature of data set [4]: Cytotoxicity against human Oral epithelial cell assessed as cell viability incubated for 96 hrs by MTT assay. As to conditions: for IC50: oral epithelial cell; for IC50 at 96 h: human, oral epithelial cells.
Data set [5] concerns SCC-25. The data set can be described thus: Induction of apoptosis in human SCC-25 cells assessed as viable at 200 uM incubated for 48 hrs by Annexin V-Alexa fluor 488 and propidium iodide staining based flow cytometry relative to control. Format: functional. (In general: A flow cytometer gives signals particle by particle.)
Data set [6] has as its system SCC-25. The data set can be described thus: Induction of apoptosis in human SCC-25 cells assessed as necrotic cells at 200 uM incubated for 48 hrs by Annexin V-Alexa fluor 488 and propidium iodide staining based flow cytometry relative to control. Format: functional.
Data set [7] has as its system SCC-25. In words: Induction of apoptosis in human SCC-25 cells assessed as late apoptotic cells at 200 uM incubated for 48 hrs by Annexin V-Alexa fluor 488 and propidium iodide staining based flow cytometry relative to control. Format: functional.
In data set [8] the test system is SCC-25. The data set can be described thus: Induction of apoptosis in human SCC-25 cells assessed as early apoptotic cells at 200 uM incubated for 48 hrs by Annexin V-Alexa fluor 488 and propidium iodide staining based flow cytometry relative to control. Format: functional.
The target in data set [9] is DNA topoisomerase 2-alpha (Homo sapiens) (UniProt P11388). As to conditions: dose 2.0 mM, time 30.0 min.
Chain of DNA topoisomerase 2-alpha (Homo sapiens) (P11388 whole entry): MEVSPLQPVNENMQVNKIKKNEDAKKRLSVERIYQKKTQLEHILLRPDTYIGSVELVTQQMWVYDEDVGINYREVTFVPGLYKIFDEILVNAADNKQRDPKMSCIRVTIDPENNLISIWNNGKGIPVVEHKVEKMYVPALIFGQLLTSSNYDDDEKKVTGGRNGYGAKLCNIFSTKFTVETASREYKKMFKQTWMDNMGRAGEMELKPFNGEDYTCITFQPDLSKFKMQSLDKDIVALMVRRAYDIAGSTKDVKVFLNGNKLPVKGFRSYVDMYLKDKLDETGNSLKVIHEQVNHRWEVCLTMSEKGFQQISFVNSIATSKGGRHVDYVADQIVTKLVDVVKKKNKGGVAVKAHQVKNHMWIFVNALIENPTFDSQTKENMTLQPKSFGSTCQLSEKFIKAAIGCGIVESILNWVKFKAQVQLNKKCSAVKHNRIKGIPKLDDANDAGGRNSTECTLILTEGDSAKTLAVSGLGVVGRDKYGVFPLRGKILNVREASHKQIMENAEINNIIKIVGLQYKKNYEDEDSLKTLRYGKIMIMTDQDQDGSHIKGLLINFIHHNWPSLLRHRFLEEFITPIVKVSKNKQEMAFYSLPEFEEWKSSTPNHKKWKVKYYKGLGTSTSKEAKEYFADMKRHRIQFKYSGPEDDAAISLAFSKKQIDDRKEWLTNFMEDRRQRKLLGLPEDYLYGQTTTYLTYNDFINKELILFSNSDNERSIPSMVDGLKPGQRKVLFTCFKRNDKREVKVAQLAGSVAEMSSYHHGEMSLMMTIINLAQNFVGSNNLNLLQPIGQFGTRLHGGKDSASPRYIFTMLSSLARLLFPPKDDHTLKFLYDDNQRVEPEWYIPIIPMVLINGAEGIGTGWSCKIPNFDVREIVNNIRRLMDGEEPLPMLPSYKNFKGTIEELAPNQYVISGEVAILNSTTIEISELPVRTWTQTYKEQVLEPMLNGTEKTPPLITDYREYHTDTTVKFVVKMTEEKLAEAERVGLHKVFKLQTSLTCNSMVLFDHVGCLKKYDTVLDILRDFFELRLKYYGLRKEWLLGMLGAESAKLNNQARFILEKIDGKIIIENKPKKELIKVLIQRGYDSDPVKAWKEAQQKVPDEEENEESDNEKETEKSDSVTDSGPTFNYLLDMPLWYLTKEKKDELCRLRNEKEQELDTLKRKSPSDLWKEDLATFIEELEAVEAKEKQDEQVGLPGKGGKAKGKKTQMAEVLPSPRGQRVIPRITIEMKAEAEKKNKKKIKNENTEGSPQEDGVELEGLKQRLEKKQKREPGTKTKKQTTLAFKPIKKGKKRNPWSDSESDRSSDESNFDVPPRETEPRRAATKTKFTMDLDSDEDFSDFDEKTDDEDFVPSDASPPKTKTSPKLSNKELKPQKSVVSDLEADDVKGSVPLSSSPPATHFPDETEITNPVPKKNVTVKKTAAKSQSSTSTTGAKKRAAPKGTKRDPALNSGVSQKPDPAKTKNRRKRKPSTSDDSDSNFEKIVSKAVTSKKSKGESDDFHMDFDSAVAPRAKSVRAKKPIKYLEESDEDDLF
Data set [10] has the same target. In words: Inhibition of human topoisomerase II alpha using kinetoplast DNA as substrate incubated for 30 mins. As to conditions: dose 10-100 µM.
For data set [11], the system named is SCC-25. In words: Induction of apoptosis in human SCC-25 cells assessed as necrotic cells at 10 uM incubated for 48 hrs by Annexin V-Alexa fluor 488 and propidium iodide staining based flow cytometry relative to control. Format: functional.
Data set [12] concerns SCC-25. The data set can be described thus: Induction of apoptosis in human SCC-25 cells assessed as late apoptotic cells at 10 uM incubated for 48 hrs by Annexin V-Alexa fluor 488 and propidium iodide staining based flow cytometry relative to control. Format: functional.
Data set [13] has as its system SCC-25. In words: Induction of apoptosis in human SCC-25 cells assessed as early apoptotic cells at 10 uM incubated for 48 hrs by Annexin V-Alexa fluor 488 and propidium iodide staining based flow cytometry relative to control. Format: functional.
Data set [14] relates to SCC-25. The data set can be described thus: Induction of apoptosis in human SCC-25 cells assessed as viable at 10 uM incubated for 48 hrs by Annexin V-Alexa fluor 488 and propidium iodide staining based flow cytometry relative to control. Format: functional.
The subject of data set [15] is SCC-25. The data set can be described thus: Induction of apoptosis in human SCC-25 cells assessed as necrotic cells at 1 uM incubated for 48 hrs by Annexin V-Alexa fluor 488 and propidium iodide staining based flow cytometry relative to control. Format: functional.
For data set [16], the system named is SCC-25. The data set can be described thus: Induction of apoptosis in human SCC-25 cells assessed as late apoptotic cells at 1 uM incubated for 48 hrs by Annexin V-Alexa fluor 488 and propidium iodide staining based flow cytometry relative to control. Format: functional.
For data set [17], the system named is SCC-25. In words: Induction of apoptosis in human SCC-25 cells assessed as early apoptotic cells at 1 uM incubated for 48 hrs by Annexin V-Alexa fluor 488 and propidium iodide staining based flow cytometry relative to control. Format: functional.
Data set [18] has as its system SCC-25. The data set can be described thus: Induction of apoptosis in human SCC-25 cells assessed as viable at 1 uM incubated for 48 hrs by Annexin V-Alexa fluor 488 and propidium iodide staining based flow cytometry relative to control. Format: functional.
In data set [19] the test system is SCC-25. The data set can be described thus: Induction of apoptosis in human SCC-25 cells assessed as necrotic cells at 0.1 uM incubated for 48 hrs by Annexin V-Alexa fluor 488 and propidium iodide staining based flow cytometry relative to control. Format: functional.
For data set [20], the system named is SCC-25. The data set can be described thus: Induction of apoptosis in human SCC-25 cells assessed as late apoptotic cells at 0.1 uM incubated for 48 hrs by Annexin V-Alexa fluor 488 and propidium iodide staining based flow cytometry relative to control. Format: functional.
Data set [21] deals with SCC-25. In words: Induction of apoptosis in human SCC-25 cells assessed as early apoptotic cells at 0.1 uM incubated for 48 hrs by Annexin V-Alexa fluor 488 and propidium iodide staining based flow cytometry relative to control. Format: functional.
The test system of data set [22] is SCC-25. The data set can be described thus: Induction of apoptosis in human SCC-25 cells assessed as viable at 0.1 uM incubated for 48 hrs by Annexin V-Alexa fluor 488 and propidium iodide staining based flow cytometry relative to control. Format: functional.
Data set [23] has as its target DNA topoisomerase 2-alpha (Homo sapiens) (UniProt P11388). The data set can be described thus: Inhibition of human topoisomerase II alpha using kinetoplast DNA as substrate at 10 microM incubated for 30 mins.

For orientation: IC50 means the concentration that inhibits the measured activity by half. As to `COc1cc([C@@H]2c3cc4c(cc3[C@@H](O[C@@H]3O[C@@H]5CO[C@@H](C)O[C@H]5[C@H](O)[C@H]3O)[C@H]3COC(=O)[C@H]23)OCO4)cc(OC)c1O` [ETOPOSIDE], the IC50 in data set [1] is 55.6 µM; in data set [2], 0.6 µM; in [3], 3.4 µM; in data set [4] it was “Not_determined”. Also, the Activity was found to be 65.5% in data set [5], 13.3% in [6], 17.2% in [7] and 2.76% in [8]. Also, the inhibition entry in [9] was “Active”.

Regarding `Cn1c2ccccc2c(=O)c2c(OCC(=O)NO)cc3c(c21)C=CC(C)(C)O3`, the IC50 was 10.9 µM in data set [1], 4 µM in data set [2] and 1.2 µM in [3]. Moreover, the IC50 at 96 h in data set [4] is over 100 µM. Also, the inhibition result in data set [10] is “Dose-dependent-effect”.

As to `Cn1c2ccccc2c(=O)c2c(OCc3ccc(C(=O)NO)cc3)cc3c(c21)C=CC(C)(C)O3`, the concentration for half-maximal inhibition (IC50) in [1] was determined as 4.71 µM; in data set [2], 1.81 µM; in [3] it was 1.66 µM. Besides, the IC50 at 96 h in data set [4] is over 100 µM.

In the case of `Cn1c2ccccc2c(=O)c2c(OCCCCC(=O)NO)cc3c(c21)C=CC(C)(C)O3`, the IC50 was 1.03 µM in data set [1], 1.51 µM in data set [2] and 0.35 µM in data set [3]. Besides, in [4], the IC50 at 96 h is over 100 µM. The Activity in data set [11] was 33.1%; in data set [12] it was 53.1%; in [13] it was 0.15%; in [14], 13.7%; in data set [15] it was 7.49%; in [16], 4.35%. The Activity in [17] was 1.13%; in data set [18], 87%; in data set [19], 1.96%; in data set [20] it was 1.35%; in [21] it was 0.63%; in data set [22], 96.1%. Moreover, the inhibition entry in [10] was “Dose-dependent-effect”.

`COc1cc2c(c3c1c(=O)c1ccccc1n3CCCCC(=O)NO)C=CC(C)(C)O2`: the IC50 was over 100 µM in data set [1], 29.5 µM in data set [2], over 100 µM in data set [3] and “Not_determined” in [4].

For the compound `COc1cc2c(c3c1c(=O)c1ccccc1n3Cc1ccc(C(=O)NO)cc1)C=CC(C)(C)O2`, the IC50 in data set [1] stood at 19.7 µM; in data set [2], 14.2 µM; in [3], 7.7 µM. The IC50 at 96 h in [4] was 82.5 µM. Also, the inhibition entry in data set [10] was “Dose-dependent-effect”.

Turning to `COc1cc2c(c3c1c(=O)c1ccccc1n3CCCCCCC(=O)NO)C=CC(C)(C)O2`, the results for the IC50 in data set [1], in [2] and in data set [3] were 6.12 µM, 4.37 µM and 1.11 µM, respectively. Moreover, the IC50 at 96 h in [4] was determined as 60.2 µM. Besides, in data set [10], the inhibition entry is “Dose-dependent-effect”.

Turning to `COc1cc2c(c3c1c(=O)c1ccccc1n3CCCC(=O)NO)C=CC(C)(C)O2`, the IC50 in [1] was over 100 µM; in data set [2] it was 36.8 µM; in data set [3], 36 µM; in data set [4] it was “Not_determined”.

As to `Cn1c2ccccc2c(=O)c2c(OCCCCCCC(=O)NO)cc3c(c21)C=CC(C)(C)O3`, the IC50 in [1] is 5.7 µM; in [2], 10.6 µM; in data set [3], 0.7 µM. The IC50 at 96 h in [4] was over 100 µM. In addition, the inhibition result in data set [10] is “Dose-dependent-effect”.

Consider `Cn1c2ccccc2c(=O)c2c(O)cc3c(c21)C=CC(C)(C)O3` [NORACRONYCINE], for which the IC50 was 187 µM in data set [1], 97.5 µM in [2], 14.1 µM in data set [3] and “Not_determined” in data set [4].

Take `COc1cc2c(c3c1c(=O)c1ccccc1n3CCCCCC(=O)NO)C=CC(C)(C)O2`: the figures for the IC50 in data set [1], in data set [2] and in [3] were 40.8 µM, 18 µM and 14.8 µM, respectively. For the same compound, the IC50 at 96 h in [4] was over 100 µM.

For `COc1cc2c(c3c1c(=O)c1ccccc1n3CC(=O)NO)C=CC(C)(C)O2`, the IC50 in data set [1] is over 100 µM; in [2], 61.8 µM; in [3] it was 41.5 µM; in data set [4], “Not_determined”.

`COc1cc2c(c3[nH]c4ccccc4c(=O)c13)C=CC(C)(C)O2`: the IC50 is 191 µM in [1], 13.9 µM in [2], 21.2 µM in data set [3] and “Not_determined” in data set [4].

For the compound `COc1cc2c(c3c1c(=O)c1ccccc1n3Cc1cccc(C(=O)NO)c1)C=CC(C)(C)O2`, the concentration for half-maximal inhibition (IC50) in [1] is 80.1 µM; in data set [2] it was 42 µM; in data set [3] it was 39.3 µM; in [4] it was “Not_determined”.

For the compound `Cn1c2ccccc2c(=O)c2c(OCCCCCC(=O)NO)cc3c(c21)C=CC(C)(C)O3`, the IC50 came to 8.3 µM in data set [1], 16.1 µM in data set [2] and 9.7 µM in data set [3]. Besides, the IC50 at 96 h in [4] was 24.5 µM. Besides, the inhibition result in data set [10] is “Dose-dependent-effect”.

Regarding `Cn1c2ccccc2c(=O)c2c(OCc3cccc(C(=O)NO)c3)cc3c(c21)C=CC(C)(C)O3`, the IC50 in data set [1] stood at 6.62 µM; in data set [2], 6.53 µM; in [3], 23.1 µM. Besides, the IC50 at 96 h in data set [4] was over 100 µM. For the same compound, the inhibition result in data set [23] is “Active”.

`Cn1c2ccccc2c(=O)c2c(OCCCC(=O)NO)cc3c(c21)C=CC(C)(C)O3`: the figures for the IC50 in data set [1], in data set [2] and in data set [3] were 2.8 µM, 3.2 µM and 2.2 µM, respectively. Besides, the IC50 at 96 h in data set [4] was 27 µM. Further, in [10], the inhibition entry is “Dose-dependent-effect”.
